Assay: xn = mol fraction of the nth substance listed
Conditions: 100 kPa

CC[n+]1ccn(C)c1.N#C[N-]C#N + CCCCO
Conditions | speed of sound [m/s] | viscosity [mPa·s]
298.15 K, x1 = 0.1015 | 1316 | 2.73
298.15 K, x1 = 0.2007 | 1385 | 2.85
298.15 K, x1 = 0.4008 | 1515 | 3.54
298.15 K, x1 = 0.5021 | 1575 | 4.21
298.15 K, x1 = 0.6014 | 1629 | 5.1
298.15 K, x1 = 0.7012 | 1685 | 6.4
298.15 K, x1 = 0.8016 | 1725 | 7.9
298.15 K, x1 = 0.9012 | 1763 | 10
298.15 K, x1 = 1 | 1787 | 13.1
303.15 K, x1 = 0.1015 | 1300 | 2.36
303.15 K, x1 = 0.2007 | 1369 | 2.41
303.15 K, x1 = 0.3006 | 1435 | 2.63
303.15 K, x1 = 0.4008 | 1499 | 2.99
303.15 K, x1 = 0.5021 | 1559 | 3.55
303.15 K, x1 = 0.6014 | 1613 | 4.26
303.15 K, x1 = 0.7012 | 1669 | 5.2
303.15 K, x1 = 0.8016 | 1709 | 6.6
303.15 K, x1 = 1 | 1775 | 11.8
308.15 K, x1 = 0.1015 | 1283 | 2.11
308.15 K, x1 = 0.2007 | 1352 | 2.17
308.15 K, x1 = 0.5021 | 1542 | 2.86
308.15 K, x1 = 0.6014 | 1596 | 3.47
308.15 K, x1 = 0.9012 | 1730 | 7.3
308.15 K, x1 = 1 | 1763 | 10.9
313.15 K, x1 = 0.1015 | 1266 | 1.91
313.15 K, x1 = 0.4008 | 1466 | 2.16
313.15 K, x1 = 0.5021 | 1525 | 2.38
313.15 K, x1 = 0.6014 | 1580 | 2.89
313.15 K, x1 = 0.7012 | 1636 | 3.58
313.15 K, x1 = 0.8016 | 1676 | 4.42
313.15 K, x1 = 0.9012 | 1713 | 6
313.15 K, x1 = 1 | 1751 | 9
318.15 K, x1 = 0.1015 | 1250 | 1.71
318.15 K, x1 = 0.2007 | 1319 | 1.79
318.15 K, x1 = 0.3006 | 1385 | 1.86
318.15 K, x1 = 0.4008 | 1449 | 1.93
318.15 K, x1 = 0.5021 | 1509 | 2.07
318.15 K, x1 = 0.7012 | 1619 | 2.91
318.15 K, x1 = 0.8016 | 1659 | 3.61
318.15 K, x1 = 0.9012 | 1697 | 5
318.15 K, x1 = 1 | 1739 | 8.1
323.15 K, x1 = 0.1015 | 1233 | 1.52
323.15 K, x1 = 0.3006 | 1369 | 1.63
323.15 K, x1 = 0.5021 | 1492 | 1.84
323.15 K, x1 = 0.6014 | 1547 | 1.99
323.15 K, x1 = 0.7012 | 1603 | 2.43
323.15 K, x1 = 0.8016 | 1643 | 3.03
323.15 K, x1 = 0.9012 | 1680 | 4.01
323.15 K, x1 = 1 | 1727 | 7.3

CCCCO + CC[n+]1ccn(C)c1.N#C[N-]C#N
x2 = 0
Conditions | speed of sound [m/s] | viscosity [mPa·s]
298.15 K | 1241 | 2.69
303.15 K | 1224 | 2.41
308.15 K | 1207 | 2.17
313.15 K | 1191 | 1.91
318.15 K | 1174 | 1.71
323.15 K | 1158 | 1.57
